Results as given in patent US12479825B2, “Melanocortin subtype-2 receptor (MC2R) antagonists and uses thereof” (Crinetics Pharmaceuticals, Inc., priority 2019, dated 2025).

molecular target: T1, hMC2 receptor (Homo sapiens, UniProt Q01718); test: hMC2 membrane binding assay ([125I]ACTH (1-39) Tyr23, SPA); conditions: crude hMC2R membranes from CRE-bla-CHO-K1 cells expressing hMC2 receptor and hMRAP; 0.2 nM [125I]ACTH (1-39) Tyr23; 1.5 hours at room temperature; read-out: MC2R binding potency
T1 construct: host or cells: CRE-bla-CHO-K1 cells, crude membrane fraction
T1 sequence (Q01718 whole entry): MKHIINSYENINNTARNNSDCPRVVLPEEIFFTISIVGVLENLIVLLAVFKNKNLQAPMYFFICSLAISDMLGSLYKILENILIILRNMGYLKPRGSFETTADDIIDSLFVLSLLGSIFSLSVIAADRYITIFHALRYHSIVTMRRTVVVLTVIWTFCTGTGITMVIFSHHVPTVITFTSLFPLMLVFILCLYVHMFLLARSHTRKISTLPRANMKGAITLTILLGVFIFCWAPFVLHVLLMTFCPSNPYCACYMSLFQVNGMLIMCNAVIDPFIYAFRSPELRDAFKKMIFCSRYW
T1 sequence (Q8TCY5 whole entry partner): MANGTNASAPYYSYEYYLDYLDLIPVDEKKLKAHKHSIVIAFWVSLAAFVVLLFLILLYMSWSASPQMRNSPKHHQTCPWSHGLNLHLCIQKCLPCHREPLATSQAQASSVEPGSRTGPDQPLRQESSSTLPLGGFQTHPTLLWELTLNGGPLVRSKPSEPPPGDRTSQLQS
Method: Crude membrane fractions are prepared from CRE-bla-CHO-K1 cells stably expressing hMC2 receptor and hMRAP accessory protein (Thermo Fisher). The cells are grown to 85-100% confluence on standard tissue culture dishes in GlutaMax DMEM growth media (Gibco) with following additives: 10% dialyzed FBS (Gemini), 0.1 mM NEAA (Gibco), 25 mM HEPES (Gibco), 5 μg/mL blasticidin (Goldbio), 100 μg/mL zeocin (Invitrogen), 600 μg/mL hygromycin (Goldbio). To prepare membranes, cells are scraped and collected in 1× Dulbecco's phosphate buffered saline (Corning) and then pelleted at 1000 RPM's. The cell pellet is reconstituted in membrane preparation buffer (20 mM HEPES, 6 mM MgCl2 and 1 mM EGTA, protease inhibitor tablets (Pierce) adjusted to pH 7.4), homogenized using a dounce homogenizer, and the resulting membrane fraction is pelleted by centrifugation at 12,000 RPM's. The membrane pellet is resuspended in membrane preparation buffer, snap freezed and stored at −80° C. for later use.
The hMC2 membrane binding assay utilizes the following components: radiolabel [^125I]ACTH (1-39) Tyr23 (PerkinElmer), wheat germ agglutinin coated PVT SPA beads (PerkinElmer), crude hMC2R membranes, and compounds. Briefly hMC2R membranes are incubated with SPA beads in binding assay buffer (50 mM HEPES, 5 mM MgCl2, 1 mM CaCl2, 0.2% BSA, protease inhibitor tablets (Pierce) adjusted to pH7.4) prior to assay initiation. A dose response of compound (the final concentration of compound is typically 0-10,000 nM), SPA membranes, and [^125I]ACTH (1-39) Tyr23 at a final concentration of 0.2 nM is plated in a 96-well assay plate and allowed to incubate 1.5 hours at room temperature. Assay plates are read using a Top Count NXT and Ki values for compounds are determined using a GraphPad Prism 6 non-linear regression analysis.

| Structure (SMILES) | Ki [nM] |
| --- | --- |
| CCOc1ncccc1-c1ccc(N2CCN(C(=O)C3(C(F)(F)F)CCCC3)C[C@H]2CC)c(O[C@@H]2CCN(C)C2)n1 [1-3, 2′-ethoxy-5-[(2R)-2-ethyl-4-[1-(trifluoromethyl)cyclopentanecarbonyl]piperazin-1-yl]-6-{[(3R)-1-methylpyrrolidin-3-yl]oxy}-2,3′-bipyridine] | 10 to 100 |
| CCOc1ncccc1-c1ccc(N2CCN(C(=O)N3CCC[C@H]3C(F)(F)F)C[C@H]2CC)c(O[C@@H]2CCN(C)C2)n1 [1-4, 2′-ethoxy-5-[(2R)-2-ethyl-4-[(2S)-2-(trifluoromethyl)pyrrolidine-1-carbonyl]piperazin-1-yl]-6-{[(3R)-1-methylpyrrolidin-3-yl]oxy}-2,3′-bipyridine] | 10 to 100 |
| CCOc1ccc(C(=O)N2CCN(c3ccc(-c4cccnc4OCC)nc3O[C@@H]3CCNC3)[C@H](CC)C2)c(C(F)(F)F)n1 [1-5, 2′-ethoxy-5-[(2R)-4-[6-ethoxy-2-(trifluoromethyl)pyridine-3-carbonyl]-2-ethylpiperazin-1-yl]-6-[(3R)-pyrrolidin-3-yloxy]-2,3′-bipyridine] | < 10 |
| CCOc1ncccc1-c1ccc(N2CCN(C(=O)c3ccc(F)cc3C(F)F)C[C@H]2CC)c(O[C@@H]2CCNC2)n1 [1-6, 5-[(2R)-4-[2-(difluoromethyl)-4-fluorobenzoyl]-2-ethylpiperazin-1-yl]-2′-ethoxy-6-[(3R)-pyrrolidin-3-yloxy]-2,3′-bipyridine] | < 10 |
| CCOc1ncccc1-c1ccc(N2CCN(C(=O)c3ccc(Cl)cc3C(F)(F)F)C[C@H]2CC)c(O[C@@H]2CCNC2)n1 [1-7, 5-[(2R)-4-[4-chloro-2-(trifluoromethyl)benzoyl]-2-ethylpiperazin-1-yl]-2′-ethoxy-6-[(3R)-pyrrolidin-3-yloxy]-2,3′-bipyridine] | < 10 |
| CCOc1ncccc1-c1ccc(N2CCN(C(=O)N3CCC[C@H]3C(F)(F)F)C[C@H]2CC)c(O[C@@H]2CCNC2)n1 [1-8, 2′-ethoxy-5-[(2R)-2-ethyl-4-[(2S)-2-(trifluoromethyl)pyrrolidine-1-carbonyl]piperazin-1-yl]-6-[(3R)-pyrrolidin-3-yloxy]-2,3′-bipyridine] | < 10 |
| CCOc1ccc(C(=O)N2CCN(c3ccc(-c4cccnc4OCC)nc3OCCNC)[C@H](CC)C2)c(C(F)(F)F)n1 [1-9, [2-({2′-ethoxy-5-[(2R)-4-[6-ethoxy-2-(trifluoromethyl)pyridine-3-carbonyl]-2-ethylpiperazin-1-yl]-[2,3′-bipyridin]-6-yl}oxy)ethyl](methyl)amine] | < 10 |
| CCOc1ncccc1-c1ccc(N2CCN(C(=O)c3ccc(F)cc3C(F)F)C[C@H]2CC)c(OCCNC)n1 [1-10, [2-({5-[(2R)-4-[2-(difluoromethyl)-4-fluorobenzoyl]-2-ethylpiperazin-1-yl]-2′-ethoxy-[2,3′-bipyridin]-6-yl}oxy)ethyl](methyl)amine] | < 10 |
| CCOc1ncccc1-c1ccc(N2CCN(C(=O)N3CCC[C@H]3C(F)(F)F)C[C@H]2CC)c(OCCNC)n1 [1-11, [2-({2′-ethoxy-5-[(2R)-2-ethyl-4-[(2S)-2-(trifluoromethyl)pyrrolidine-1-carbonyl]piperazin-1-yl]-[2,3′-bipyridin]-6-yl}oxy)ethyl](methyl)amine] | < 10 |
| CCOc1ccc(C(=O)N2CCN(c3ccc(-c4cccnc4OCC)nc3OCCN)[C@H](CC)C2)c(C(F)(F)F)n1 [1-12, 2-({2′-ethoxy-5-[(2R)-4-[6-ethoxy-2-(trifluoromethyl)pyridine-3-carbonyl]-2-ethylpiperazin-1-yl]-[2,3′-bipyridin]-6-yl}oxy)ethan-1-amine] | < 10 |
| CCOc1ncccc1-c1ccc(N2CCN(C(=O)c3ccc(F)cc3C(F)F)C[C@H]2CC)c(OCCN)n1 [1-13, 2-({5-[(2R)-4-[2-(difluoromethyl)-4-fluorobenzoyl]-2-ethylpiperazin-1-yl]-2′-ethoxy-[2,3′-bipyridin]-6-yl}oxy)ethan-1-amine] | < 10 |
| CCOc1ncccc1-c1ccc(N2CCN(C(=O)N3CCC[C@H]3C(F)(F)F)C[C@H]2CC)c(OCCN)n1 [1-14, 2-({2′-ethoxy-5-[(2R)-2-ethyl-4-[(2S)-2-(trifluoromethyl)pyrrolidine-1-carbonyl]piperazin-1-yl]-[2,3′-bipyridin]-6-yl}oxy)ethan-1-amine] | < 10 |
| CCOc1ncccc1-c1ccc(N2CCN(C(=O)c3ccc(Cl)cc3C(F)(F)F)C[C@H]2CC)c(OCCNC)n1 [1-15, [2-({5-[(2R)-4-[4-chloro-2-(trifluoromethyl)benzoyl]-2-ethylpiperazin-1-yl]-2′-ethoxy-[2,3′-bipyridin]-6-yl}oxy)ethyl](methyl)amine] | < 10 |
| CCOc1ncccc1-c1ccc(N2CCN(C(=O)c3ccc(Cl)cc3C(F)(F)F)C[C@H]2CC)c(OCCN)n1 [1-16, 2-({5-[(2R)-4-[4-chloro-2-(trifluoromethyl)benzoyl]-2-ethylpiperazin-1-yl]-2′-ethoxy-[2,3′-bipyridin]-6-yl}oxy)ethan-1-amine] | < 10 |
| CCOc1ccc(C(=O)N2CCN(c3ccc(-c4cccnc4OCC)nc3OCCN(C)C)[C@H](CC)C2)c(C(F)(F)F)n1 [1-17, [2-({2′-ethoxy-5-[(2R)-4-[6-ethoxy-2-(trifluoromethyl)pyridine-3-carbonyl]-2-ethylpiperazin-1-yl]-[2,3′-bipyridin]-6-yl}oxy)ethyl]dimethylamine] | < 10 |
| CCOc1ccc(C(=O)N2CCN(c3ccc(-c4cccnc4OCC)nc3O[C@H]3CCNC3)[C@H](CC)C2)c(C(F)(F)F)n1 [1-18, 2′-ethoxy-5-[(2R)-4-[6-ethoxy-2-(trifluoromethyl)pyridine-3-carbonyl]-2-ethylpiperazin-1-yl]-6-[(3S)-pyrrolidin-3-yloxy]-2,3′-bipyridine] | < 10 |
| CCOc1ccc(C(=O)N2CCN(c3ccc(-c4cccnc4OCC)nc3OC[C@@H](C)N)[C@H](CC)C2)c(C(F)(F)F)n1 [1-19, (2R)-1-({2′-ethoxy-5-[(2R)-4-[6-ethoxy-2-(trifluoromethyl)pyridine-3-carbonyl]-2-ethylpiperazin-1-yl]-[2,3′-bipyridin]-6-yl}oxy)propan-2-amine] | < 10 |
| CCOc1ccc(C(=O)N2CCN(c3ccc(-c4cccnc4OCC)nc3OC[C@H](C)N)[C@H](CC)C2)c(C(F)(F)F)n1 [1-20, (2S)-1-({2′-ethoxy-5-[(2R)-4-[6-ethoxy-2-(trifluoromethyl)pyridine-3-carbonyl]-2-ethylpiperazin-1-yl]-[2,3′-bipyridin]-6-yl}oxy)propan-2-amine] | < 10 |
| CCOc1ccc(C(=O)N2CCN(c3ccc(-c4cccnc4OCC)nc3O[C@H](C)CN)[C@H](CC)C2)c(C(F)(F)F)n1 [1-21, (2R)-2-({2′-ethoxy-5-[(2R)-4-[6-ethoxy-2-(trifluoromethyl)pyridine-3-carbonyl]-2-ethylpiperazin-1-yl]-[2,3′-bipyridin]-6-yl}oxy)propan-1-amine] | < 10 |

Other lines, results leading:

| Ki [nM] | Structure (SMILES) |
| --- | --- |
| < 10 | CCOc1ncccc1-c1ccc(N2CC[C@@H](Oc3ccc(Cl)cc3C(F)(F)F)C[C@H]2CC)c(C(=O)N[C@@H]2CCN(C)C2)n1 (single isomer, unassigned) [2-9, 5-[(2R,4R)*-4-[4-chloro-2-(trifluoromethyl)phenoxy]-2-ethylpiperidin-1-yl]-2′-ethoxy-N-[(3R)-1-methylpyrrolidin-3-yl]-[2,3′-bipyridine]-6-carboxamide] |
| 10 to 100 | CCOc1ncccc1-c1ccc(N2CC[C@H](Oc3ccc(Cl)cc3C(F)(F)F)C[C@@H]2CC)c(C(=O)N[C@@H]2CCN(C)C2)n1 (single isomer, unassigned) [2-10, 5-[(2S,4S)*-4-[4-chloro-2-(trifluoromethyl)phenoxy]-2-ethylpiperidin-1-yl]-2′-ethoxy-N-[(3R)-1-methylpyrrolidin-3-yl]-[2,3′-bipyridine]-6-carboxamide] |
| < 10 | CCOc1ncccc1-c1ccc(N2CC[C@@H](Oc3ccc(C(F)(F)F)cc3C#N)C[C@H]2CC)c(C(=O)N[C@@H]2CCN(C)C2)n1 (single isomer, unassigned) [2-11] |
| 10 to 100 | CCOc1ncccc1-c1ccc(N2CC[C@H](Oc3ccc(C(F)(F)F)cc3C#N)C[C@@H]2CC)c(C(=O)N[C@@H]2CCN(C)C2)n1 (single isomer, unassigned) [2-12] |
| < 10 | CCOc1ncccc1-c1ccc(N2CC[C@@H](Oc3ccc(C(F)(F)F)nc3C#N)C[C@H]2CC)c(C(=O)N[C@@H]2CCN(C)C2)n1 (single isomer, unassigned) [2-18] |
| < 10 | CCOc1ncccc1-c1ccc(N2CC[C@@H](Oc3ccc(Cl)cc3C#N)C[C@H]2CC)c(C(=O)N[C@@H]2CCN(C)C2)n1 (single isomer, unassigned) [2-21] |
| < 10 | CCOc1ncccc1-c1ccc(N2CC[C@@H](Oc3ccc(C(F)(F)F)nc3C#N)C[C@H]2CC)c(C(=O)N[C@H]2CCN(C)C2)n1 (single isomer, unassigned) [2-22] |
